The values that follow are results of earlier work, collected in publication PMC3967229 (Marine Drugs, 2014).

Where two headings read alike, the source gives them in different places.

One series concerns HCT116 tumor. The settings on record: i.p.
For the next series, the system named is MDA-MB-231 cells. On the set-up: method as in PMID 22543582. The settings on record: 10 mg/kg/day, together with dexamethasone.
The conditions of series [1]: mouse in vivo model.
The conditions of series [2]: rabbit in vivo model.
The conditions of series [3]: 5 mg/kg/day.
The conditions of series [4]: protein-assisted mechanism.
Experiment in series [5]: not given
The source holds these as a separate data set.

Experiment in series [6]: not given
The source holds these as a separate data set.

On the set-up of series [7]: method as in earlier work.

As for `CCCCCCCC(=O)SCC/C=C/[C@@H]1CC(=O)NCc2nc(cs2)C2=N[C@@](C)(CS2)C(=O)N[C@@H](C(C)C)C(=O)O1` [largazole], the Cellular activity result was “low-nanomolar”. For the same compound, in the series with HCT116 tumor (colon tumor xenograft mouse model), the HCT116 tumor growth entry is “retarding HCT116 tumor growth”. Besides, the Acute toxicity entry in the series on HCT116 tumor (up to the highest dose tested (50 mg/kg), mouse) is reported as “without acute toxicity”. Moreover, the “Invasiveness of orthotopic MDA-MB-231 tumors” value in the series with MDA-MB-231 cells was “reducing the invasiveness”. Further, the Bone-forming activity entry in series [1] is reported as “bone-forming activity”. Further, the Bone-forming activity result in series [2] is reported as “bone-forming activity”. For the same compound, the Liver fibrosis entry in series [3] is on record as “decreased liver fibrosis”. Further, in [4], the “Conversion to largazole thiol in mouse serum” value is “rapidly converted”.
With `C/C=C1\NC(=O)[C@H]2CSSCC/C=C/[C@H](CC(=O)N[C@H](C(C)C)C(=O)N2)OC(=O)[C@H](C(C)C)NC1=O` [romidepsin], in series [5], the “Volume of distribution (Vdss)” value is on record as 22.3 L/kg.
The term Vdss denotes the apparent volume that relates the amount in the body to the concentration in plasma or blood. `O=C(CCCCCCC(=O)Nc1ccccc1)NO` [vorinostat, Suberoylanilide hydroxamic acid]: the Cellular activity result was “micromolar”. Besides, the “Plasma protein binding, bound to human plasma” value in [6] was 71.3%. Also, in series [7], the Clearance was 3.3 L/h/kg and the volume of distribution (Vdss) is given as 0.6 L/kg.
Take largazole thiol: the “Potency against HDAC isoforms” value in the series with HDACs 1, 2 and 3 is listed as “subnanomolar”.
